Earlier results as cited in patent publication US20260125680A1, “COMPOSITIONS AND METHODS FOR IMMUNE CHECKPOINT INHIBITION” (The General Hospital Corporation, priority 2018, published 2026).

Assays:
[1] = tested on: bladder cancer; details: confirmatory trial
[2] = tested on: pancreatic cancer; details: monotherapy

Substance	primary endpoint of overall survival [1]	response [2]
atezolizumab: FDA approved PD-L1 inhibitor	failed to achieve its primary endpoint	–
Ipilimumab: anti-CTLA-4	–	ineffective with no responders
